According to patent publication US5380834A, “Immuno-suppressive agent” (Ishihara Sangyo Kaisha Ltd., priority 1992, dated 1995):
In brackets after ≈: the same amount, converted by molar mass.

What was measured:
murine thymocytes = experiment: Effects on the mitogenic response by murine thymocytes (Con A stimulation, 3H-TdR uptake); assay type: cell-based, BALB/c murine; conditions: Mus musculus, Thymocyte; BALB/c thymocytes, Con A 5 μg/ml, 48 hours, 3H-TdR uptake; read-out: IC50 value, a (mitogenic response of murine thymocytes)
[1] = test system: IgGl antibody production from murine spleen B cells; experiment: Effects on the IgGl antibody production from murine spleen cells (LPS + IL4); assay type: cell-based, BALB/c mouse; conditions: Mus musculus, B-cell, 168 h; spleen B cells, LPS 10 μg/ml, IL4 100 U/ml, 7 days, enzyme-immunoassay; read-out: IC50 value, IgGl antibody production
[2] = test system: IgM antibody production from murine spleen B cells; experiment: Effects on the IgM antibody production from murine spleen cells (LPS + IL4); assay type: cell-based, BALB/c mouse; conditions: Mus musculus, B-cell, 168 h; spleen B cells, LPS 10 μg/ml, IL4 100 U/ml, 7 days, enzyme-immunoassay; read-out: IC50 value, IgM antibody production

SMILES	IC50 (murine thymocytes)	IC50 [1]	IC50 [2]
O[C@H]1C=C[C@H]2CO[C@@H]1O2 [Compound 1, 1,6-anhydro-3,4-dideoxy-β-D-threo-hex-3-enopyranose]	15 µg/mL (≈ 117 µM)	37 µg/mL	25 µg/mL
O=C(O[C@H]1C=C[C@H]2CO[C@@H]1O2)c1ccco1 [Compound 17, 1,6-anhydro-3,4-dideoxy-2-O-(2-furancarbonyl)-β-D-threo-hex-3-enopyranose]	190 µg/mL (≈ 855 µM)	1 µg/mL	100 µg/mL
C#C[C@]1(O)C=C[C@H]2CO[C@@H]1O2 [Compound 29]	35 µg/mL (≈ 230 µM)	380 µg/mL	> 1000 µg/mL
